In brackets after ≈: the same amount, converted by molar mass. Read-outs that look alike come from different tables or passages of the source.
How the values were obtained:
[1] = tested on: Bacillus subtilis ATCC6051; assay: MIC, broth dilution method, dark condition; format: cell-based; settings: Table 1 entry 1, 24 h
Bacillus cereus 13061 ™ = assay: MIC, broth dilution method, dark condition; format: cell-based; settings: Table 1 entry 3, 24 h
[2] = tested on: Staphylococcus aureus subsp. Aureus BAA-41 ™ (a MRSA strain); assay: MIC, broth dilution method, dark condition; format: cell-based; settings: Table 1 entry 6, 24 h
[3] = tested on: Staphylococcus aureus subsp. Aureus BAA-44 ™ (a MRSA strain); assay: MIC, broth dilution method, dark condition; format: cell-based; settings: Table 1 entry 8, 24 h
[4] = tested on: Staphylococcus aureus AIS2006032 (a vancomycin-resistant strain); assay: MIC, broth dilution method, dark condition; format: cell-based; settings: Table 1 entry 12, 24 h
[5] = tested on: Staphylococcus aureus USA100 strains 71080 (VRS8, a vancomycin-resistant strain); assay: MIC, broth dilution method, dark condition; format: cell-based; settings: Table 1 entry 15, 24 h
[6] = tested on: Enterococcus faecium NR-32065 (a vancomycin- resistant strain); assay: MIC, broth dilution method, dark condition; format: cell-based; settings: Table 1 entry 20, 24 h
[7] = tested on: Streptococcus salivarius subsp. Salivarius 7073 ™; assay: MIC, broth dilution method, dark condition; format: cell-based
[8] = tested on: Mycobacterium smagmatis 607 ™; assay: MIC, broth dilution method, dark condition; format: cell-based, Mycobacterium smegmatis
Gram-positive bacteria = assay: MIC summary for Gram-positive bacteria, broth dilution; format: cell-based
Description: (§1) Under the dark condition RB is known to display antibacterial activity at high concentrations.
Provectus has established a manufacturing and purification process for pharmaceutical-grade RB that fulfills both cGMP and ICH requirements. We have evaluated the antibacterial activity and cytotoxicity of a pharmaceutical-grade RB formulated product (PV-10®) as an exemplary RB compound in illuminating and dark conditions.

Gram-negative bacteria = assay: Susceptibility of Gram-negative bacteria, dark condition; format: cell-based
Description: as §1

Mycobacterial spp. = assay: Killing concentrations for five Mycobacterial spp.; format: cell-based, Mycobacterium spp.
Procedure: Antibacterial activity of RB against 5 Mycobacterium spp. Was examined (entries 25-29). […] RB inhibited growth of Saccharomyces cerevisiae at higher concentrations than the bacteria under the dark condition (entry 30).
RB kills Mycobacterial spp. At 12.5-25.0 mg/mL in illumination conditions, and at 25.0-50.0 mg/mL in dark conditions (Table 1). In both conditions, RB kills five Mycobacterial spp. At a slower rate than that of Gram-positive bacteria. RB seems to have low-permeability of mycobacterial cell walls. Due to rapid bactericidal effect of RB against Gram-positive bacteria even in the dark condition, generation of RB-resistant mutants of Gram-positive bacteria is an extremely difficult task.

[9] = tested on: biofilms of S. aureus 6508™; assay: Biofilm eradication assay; format: cell-based, Staphylococcus aureus; settings: for viable bacteria in biofilm: dark condition
Procedure: 62:394-399 (2013)], and was used as a control.
Linezolid was applied as a positive control at very high concentration of 600 μg/mL (>100×MIC for the planktonic cells) in biofilm assays reported by Kurosu et al., Molecules 27:322 (2022).

[10] = tested on: biofilms of E. faecium NR-32065; assay: Biofilm eradication assay; format: cell-based, Enterococcus faecium; settings: fluorescent and dark conditions; concentration-dependent
Description: Linezolid is not an effective drug in eradicating biofilms of Gram-positive bacteria, but has a beneficial effect in prevention of biofilm formations [Reiter et al., J. Med. Microbiol. 62:394-399 (2013)], and was used as a control.
We confirm that RB is an excellent agent to eradicate biofilms of Gram-positive bacteria, including drug-resistant strains. […] These studies indicate that RB has the potential antibacterial agent to kill drug-resistant bacteria in any growth phases.

[11] = tested on: patient-isolated methicillin-resistant Staphylococcus aureus (MRSA); settings: cited from earlier work
F. solani = settings: three days of incubation, cited from earlier work
C. albicans = settings: three days of incubation, cited from earlier work
[12] = concentrations below 2.0%; cited from earlier work

SMILES: O=C(O)c1c(Cl)c(Cl)c(Cl)c(Cl)c1-c1c2cc(I)c(=O)c(I)c-2oc2c(I)c(O)c(I)cc12 [RB, 4,5,6,7-tetrachloro-2′,4′,5′,7′-tetraiodofluorescein]
- MIC [1]: 50 µg/mL (≈ 51.4 µM)
- MIC (Bacillus cereus 13061 ™): 50 µg/mL (≈ 51.4 µM)
- MIC [2]: 25 µg/mL (≈ 25.7 µM)
- MIC [3]: 50 µg/mL (≈ 51.4 µM)
- MIC [4]: 50 µg/mL (≈ 51.4 µM)
- MIC [5]: 25 µg/mL (≈ 25.7 µM)
- MIC [6]: 50 µg/mL (≈ 51.4 µM)
- MIC ([7]; Streptococcus salivarius, Table 1 entry 23, broth dilution, dark, 24 h): 25 µg/mL (≈ 25.7 µM)
- susceptibility to RB ([7]; entry 23): susceptible
- MIC ([8]; Mycobacterium, Table 1 entry 25, broth dilution, dark, 24 h, read-out: MIC): 25 µg/mL (≈ 25.7 µM)
- MIC ([8]; dark condition, triplicated, read-out: MIC (μg/mL) against M. smegmatis 607 ™ (wild-type)): 12.5 µg/mL (≈ 12.8 µM)
- concentration showing antibacterial activity against all Gram-positive bacteria of entries 1-23 (Gram-positive bacteria; dark condition, Table 1): 25.0 to 100 µg/mL
- MIC (Gram-positive bacteria; saline-diluted PV-10, except Streptococcus pneumoniae sp., lighting not given, read-out: MIC against most Gram-positive bacteria): 0.39 to 3.1 µg/mL (≈ 0.401 to 3.18 µM)
- susceptibility of Gram-negative bacteria to RB (Gram-negative bacteria): not susceptible
- concentration at which RB kills Mycobacterial spp. (Mycobacterial spp.; dark conditions): 25.0 to 50.0 mg/mL
- concentration at which RB kills Mycobacterial spp. (Mycobacterial spp.; illumination conditions): 12.5 to 25.0 mg/mL
- viable bacteria in biofilm ([9]; RB 50.0 μg/mL (2×MIC under dark)): significantly reduced the number of viable bacteria
- viable bacteria in biofilm ([9]; RB 1,000 μg/mL): No viable bacteria
- biofilm eradication, log reduction ([9]; under the fluorescent light, RB 30.0 μg/mL (38×MIC)): 7 log reduction
- viable cells in biofilm [10]: significantly reduced
- growth inhibition of MRSA strain 1 ([11]; RB 0.03% in dark conditions): incomplete inhibition
- growth inhibition of MRSA strain 2 ([11]; RB 0.03% in dark conditions): complete inhibition
- growth inhibition of both MRSA strains ([11]; RB 0.1% in the dark): Complete growth inhibition
- growth inhibition of both MRSA strains ([11]; RB 0.1 and 0.03%, ambient room light or green LED irradiation (5.4 J/cm^2)): Complete growth inhibition
- Day 3 Growth Inhibition Percentage, RB + 518 nm Irradiation (F. solani; 518 nm, 5.4 J/cm^2): 78.2 ± 2.1 Percentage
- Day 3 Growth Inhibition Percentage, RB Only (F. solani; dark, no irradiation): 7.3 ± 1.1 Percentage
- Day 3 Growth Inhibition Percentage, RB + 518 nm Irradiation (C. albicans; 518 nm, 5.4 J/cm^2): 95.6 ± 3 Percentage
- Day 3 Growth Inhibition Percentage, RB Only (C. albicans; dark, no irradiation): 42.2 ± 3.7 Percentage
- safety of RB under natural and artificial lights [12]: considered to be safe

From patent US12661335B2, “Halogenated xanthene-containing topical anti-gram-positive bacterial ophthalmic composition and method” (Provectus Pharmatech, Inc., priority 2021, dated 2026)
